{
  "source": "paper PMC5055294",
  "about": "(PLoS ONE, 2016)",
  "molecules": {"B1": {"name": "CCL8: chemokine (protein, UniProt P80075 24-99, looked up)", "C-C motif chemokine 8": "QPDSVSIPITCCFNVINRKIPIQRLESYTRITNIQCPKEAVIFKTKRGKEVCADPKERWVRDSMKHLDQIFQNLKP"}, "B2": {"name": "CCL5: chemokine (protein, UniProt P13501 24-91, looked up)", "C-C motif chemokine 5": "SPYSSDTTPCCFAYIARPLPRAHIKEYFYTSGKCSNPAVVFVTRKNRQVCANPEKKWVREYINSLEMS"}, "B3": {"name": "Chemerin (unlabelled) (ligand, human, UniProt Q99969 21-157, looked up)", "chain": "ELTEAQRRGLQVALEEFHKHPPVQWAFQETSVESAVDTPFPAGIFVRLEFKLQQTSCRKRDWKKPECKVRPNGRKRKCLACIKLGSEDKVLGRLVHCPIETQVLREAEEHQETQCLRVQRAGEDPHSFYFPGQFAFS", "notes": "chemerin, human; also called full length chemerin; full size chemerin; source: bought: R&D Systems"}},
  "key": {"CCRL2 [1]": {"system": "CCRL2", "details": "cited from earlier work; for calcium mobilization and chemotaxis through CCRL2: ref [20], not confirmed by other groups [23]", "text": "(§1) […]. CMKLR1 is coupled to the Gi/o family of G proteins and in cells ..."}, "GPR44/CRTH2": {"system": "GPR44/CRTH2", "test": "G protein BRET assay, negative control GPR44/CRTH2", "format": "cell-based", "details": "HEK293T, 100 nM chemerin, 1 minute", "method": "(§2) G protein activation was assayed by BRET as previously described. Briefly, plasmids encoding G protein biosensors and receptors of interest were co-transfected into HEK293T cells by using the calcium phosphate method. Forty-eight hours after transfection, cells were washed twice with PBS, detached and resuspended in PBS plus 0.1% (w/v) glucose at room temperature. Cells were then distributed (80 μg of proteins per well) in a 96-well microplate (Optiplate, PerkinElmer). BRET^2 between RLuc8 and GFP10 was measured 1 min after addition of coelenterazine 400a/Deep blue C (5 μM, Gentaur). BRET readings were collected using an Infinite F200 reader (Tecan). The BRET signal was calculated as the ratio of emission of GFP10 (510–540 nm) to RLuc8 (370–450 nm).\n(§3) As controls, cells expressing the α2c adrenergic receptor (Gαi/o) were stimulated with UK14304; cells expressing the AT1 angiotensin receptor (Gα11/q) were stimulated with angiotensin II; cells expressing the β2 adrenergic receptor (Gαs) were stimulated with isoproterenol; cells expressing thromboxane A2 receptor (Gα12/13) were stimulated with U46619. Data represent the mean ± S.E.M. of three to six independent experiments. Statistical significance was assessed using Tukey's test (***P < 0.0001)."}, "CCRL2 [2]": {"system": "CCRL2", "test": "ERK1/2 phosphorylation in CHO-K1 cells, CCRL2", "format": "cell-based, human", "details": "300 nM chemerin, immunoblot", "method": "CHO-K1 and MEF cells stably expressing receptors of interest were starved for 12–18 h in serum-free medium prior to stimulation. […] Whole cell lysates were resolved on 10% Tris/Tricine polyacrylamide gels and transferred to nitrocellulose membranes. Phosphorylated ERK1/2 and total ERK1/2 were detected by using rabbit polyclonal anti-phospho-ERK1/2 (Cell Signaling #4370, 1:1,000) and anti-ERK1/2 (Cell Signaling #4695S, 1:2,000) antibodies. Chemiluminescent detection was performed using ECL-Plus reagent (Perkin Elmer).\n(§4) A. Calcium mobilization was measured in CHO-K1 cells using the aequorin-based functional assay. […] The results were normalized for the basal luminescence of the cells in absence of agonist (0%) and the maximal response obtained for each cell line with 10 μM ATP (100%). […] Data represent the mean ± S.E.M. of three independent experiments C. […] Detection of total ERK1/2 by Western blotting was used to ascertain that an equal amount of material was loaded in each lane (lower panel). A typical experiment out of three performed independently is shown."}, "CCRL2 [3]": {"system": "CCRL2", "test": "Intracellular calcium mobilization (aequorin), CCRL2", "format": "cell-based, human", "details": "CCRL2, CHO-K1, aequorin", "method": "Calcium mobilization was measured by an aequorin-based assay as previously described. Briefly, CHO-K1 cells stably expressing apoaequorin and the receptors of interest were incubated for 4 h in the dark in the presence of 5 μM coelenterazine h (Promega) and then diluted before use to reach the appropriate cell density.\nas §4"}, "CCRL2 [4]": {"system": "CCRL2", "test": "β-arrestin BRET recruitment assay, CCRL2", "format": "cell-based, human", "details": "β-arrestin1-Rluc or β-arrestin2-Rluc, CCRL2-Venus, HEK293T; 100 nM chemerin; 25°C", "method": "β-arrestin recruitment was measured by a BRET proximity assay as previously described. Briefly, plasmids encoding Rluc-β-arrestin 2 and receptors fused to Venus were cotransfected into HEK293T cells by using the calcium phosphate method. Twenty-four hours post-transfection, cells were collected and seeded in 96-well microplates (165306, Nunc) and cultured for an additional 24 h. Cells were then rinsed once with PBS and incubated in PBS plus 0.1% (w/v) glucose at 25°C to slow down kinetics of arrestin recruitment and improve temporal resolution. BRET^1 between RLuc and YFP was measured after the addition of coelenterazine h (5 μM, Promega). […] The BRET signal was calculated as the ratio of emission of YFP (520–570 nm) to RLuc (370–480 nm).\nFig 6 Recruitment of β-arrestins by CMKLR1 and GPR1. […] Data represent the mean ± S.E.M. of three independent experiments."}, "GPR1 [5]": {"system": "GPR1", "details": "ref [13], cited from earlier work", "text": "as §1"}, "CMKLR1": {"system": "CMKLR1", "details": "cited from earlier work", "text": "as §1"}, "[6]": {"system": "leukocyte populations that express CMKLR1", "details": "ex vivo; dendritic cells, macrophages and natural killer cells; ref [1],[8]–[10]; cited from earlier work", "text": "as §1"}, "CCRL2 [7]": {"system": "CCRL2", "test": "G protein BRET assay, CCRL2", "format": "cell-based, human", "details": "CCRL2, HEK293T; 100 nM chemerin, 1 minute", "method": "as §2, §3"}, "GPR33": {"system": "GPR33", "test": "G protein BRET assay, negative control GPR33", "format": "cell-based", "details": "HEK293T, 100 nM chemerin, 1 minute", "method": "as §2, §3"}, "FPR1": {"system": "FPR1", "test": "G protein BRET assay, negative control FPR1", "format": "cell-based", "details": "HEK293T, 100 nM chemerin, 1 minute", "method": "as §2, §3"}, "CCRL2 [8]": {"system": "CCRL2", "test": "Radiolabelled chemerin internalization (acid-wash), CCRL2", "format": "cell-based, human", "details": "CCRL2, CHO-K1; incubation at 28°C", "method": "Cell surface receptor was detected by flow cytometry using a saturating concentration of antibodies specific for CMKLR1 (●), GPR1 (◯) or CCRL2 (△). Results were normalized for the fluorescence of unstimulated cells (100%) and for background fluorescence (0%). Data represent the mean ± S.E.M. of three independent experiments. […] Then, cells were either left at 4°C or shifted to 28°C to allow receptor internalization. After 90 minutes, cells were acid-washed and the amount of radioactivity remaining associated with the cells was measured. Data represent the mean ± S.E.M. of three independent experiments."}, "CCRL2 [9]": {"target": "T1, CCRL2 (human, UniProt O00421 1-344)", "T1 sequence (looked up)": "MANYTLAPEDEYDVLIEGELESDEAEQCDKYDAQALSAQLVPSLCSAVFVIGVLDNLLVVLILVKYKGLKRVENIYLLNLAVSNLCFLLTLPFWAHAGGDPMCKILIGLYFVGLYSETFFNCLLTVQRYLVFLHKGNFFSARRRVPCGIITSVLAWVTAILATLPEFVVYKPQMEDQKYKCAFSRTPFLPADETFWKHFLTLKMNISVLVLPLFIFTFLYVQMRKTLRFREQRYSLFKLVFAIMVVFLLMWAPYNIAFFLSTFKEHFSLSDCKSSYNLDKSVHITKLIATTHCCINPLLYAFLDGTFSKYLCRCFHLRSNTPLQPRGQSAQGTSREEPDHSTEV", "test": "cell-based or functional assay"}, "CCRL2 [10]": {"target": "T1, CCRL2", "test": "radioligand binding; competition: CHO-K1 cells expressing the receptor with 0.1 nM [125I]-chemerin as tracer and increasing concentrations of unlabelled chemerin or chemerin 9; 50 mM HEPES pH 7.4, 1 mM CaCl2, 5 mM MgCl2, 250 mM sucrose, 0.5% BSA; 30 min at room temperature; filtration", "details": "one partner purified"}, "GPR1 [11]": {"target": "T2, GPR1 (human, UniProt P46091 1-355)", "T2 construct": "GPR1, human chemerin receptor, expressed on CHO-K1 cells; The functional rows with G protein biosensors (HEK293T, transfected) and with MEF cells also use this molecule; source: CHO-K1, stably expressing (Clone 8), on cells", "T2 sequence (looked up)": "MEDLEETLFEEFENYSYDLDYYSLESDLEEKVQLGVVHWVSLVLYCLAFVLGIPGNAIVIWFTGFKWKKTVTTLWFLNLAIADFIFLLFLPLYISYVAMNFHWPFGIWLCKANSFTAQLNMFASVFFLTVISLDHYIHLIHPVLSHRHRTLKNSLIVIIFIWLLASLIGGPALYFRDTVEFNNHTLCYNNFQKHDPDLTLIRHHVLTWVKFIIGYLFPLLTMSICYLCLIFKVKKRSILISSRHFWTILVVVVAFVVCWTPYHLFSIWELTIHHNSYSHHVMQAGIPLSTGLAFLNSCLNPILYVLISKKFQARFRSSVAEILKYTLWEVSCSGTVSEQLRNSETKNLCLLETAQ", "test": "radioligand binding; competition: CHO-K1 cells expressing the receptor with 0.1 nM [125I]-chemerin as tracer and increasing concentrations of unlabelled chemerin or chemerin 9; 50 mM HEPES pH 7.4, 1 mM CaCl2, 5 mM MgCl2, 250 mM sucrose, 0.5% BSA; 30 min at room temperature; filtration", "details": "one partner purified"}},
  "data": [
    {"molecule": "CCL7: chemokine", "values": [
      {"measurement": "calcium mobilization and chemotaxis through CCRL2", "setting": "CCRL2 [1]", "result": "promotes calcium mobilization and chemotaxis"}
    ]},
    {"molecule": "CCL2: chemokine", "values": [
      {"measurement": "calcium mobilization and chemotaxis through CCRL2", "setting": "CCRL2 [1]", "result": "promotes calcium mobilization and chemotaxis"}
    ]},
    {"molecule": "Chemerin: small chemotactic protein, natural ligand of CMKLR1; purchased from R&D Systems", "values": [
      {"measurement": "G protein BRET signal (Gαi/o biosensors)", "setting": "GPR44/CRTH2", "result": "generated signals of much weaker magnitude"},
      {"measurement": "phosphorylation of ERK1/2", "setting": "CCRL2 [2]", "result": "generated no detectable signals"},
      {"measurement": "calcium mobilization", "setting": "CCRL2 [3]", "result": "generated no detectable signals"},
      {"measurement": "β-arrestin recruitment", "setting": "CCRL2 [4]", "result": "CCRL2 does not recruit β-arrestins"},
      {"measurement": "calcium mobilization", "setting": "GPR1 [5]; GPR1, recombinant cell lines", "result": "activate weakly calcium mobilization in recombinant cell lines"},
      {"measurement": "down-regulation of GPR1", "setting": "GPR1 [5]", "result": "induces its rapid down-regulation"},
      {"measurement": "calcium mobilization or ligand internalization", "setting": "CCRL2 [1]; CCRL2, chemerin, ref [11]", "result": "does not induce calcium mobilization or ligand internalization"},
      {"measurement": "recruitment of β-arrestin2 to CMKLR1", "setting": "CMKLR1; introduction, no reference given", "result": "induces the recruitment of β-arrestin2 to CMKLR1"},
      {"measurement": "signaling in cells expressing CMKLR1", "setting": "CMKLR1; ref [7]", "result": "inhibits cAMP production and promotes phospholipase C activation, IP3 release, calcium mobilization as well as activation of PI3K and MAPK pathways"},
      {"measurement": "chemotaxis", "setting": "[6]", "result": "promotes chemotaxis of leukocyte populations that express CMKLR1"},
      {"measurement": "G protein activation", "setting": "CCRL2 [7]", "result": "none of the G proteins tested were activated by GPR1 or CCRL2 upon chemerin stimulation"},
      {"measurement": "G protein BRET signal (Gαi/o biosensors)", "setting": "GPR33", "result": "generated signals of much weaker magnitude"},
      {"measurement": "G protein BRET signal (Gαi/o biosensors)", "setting": "FPR1", "result": "generated signals of much weaker magnitude"}
    ]},
    {"molecule": "[^125I]-chemerin: R&DSystems, custom labelling performed by Perkin Elmer; tracer", "values": [
      {"measurement": "radioactivity lost after acid-wash (chemerin internalization)", "setting": "CCRL2 [8]", "result": "nearly all the radioactivity associated to cells expressing CCLR2 was lost after the acid-wash procedure"}
    ]},
    {"molecule": "B1", "values": [
      {"measurement": "calcium mobilization and chemotaxis through CCRL2", "setting": "CCRL2 [1]", "result": "promotes calcium mobilization and chemotaxis"}
    ]},
    {"molecule": "B2", "values": [
      {"measurement": "calcium mobilization and chemotaxis through CCRL2", "setting": "CCRL2 [1]", "result": "promotes calcium mobilization and chemotaxis"}
    ]},
    {"molecule": "B3", "values": [
      {"measurement": "t1/2 of down-regulation of the receptor from the cell surface (FACS, CHO-K1, 100 nM chemerin)", "setting": "CCRL2 [9]", "result": "> 1", "unit": "h"},
      {"measurement": "pIC50", "setting": "CCRL2 [10]", "result": 9.1},
      {"measurement": "pIC50", "setting": "GPR1 [11]", "result": 9.9}
    ]}
  ]
}
